The values below come from patent US9115102B2, “N-[2-hydroxycarbamoyl-2-(piperazinyl) ethyl] benzamide compounds, their preparation and their use as TACE inhibitors” (GALDERMA RESEARCH & DEVELOPMENT, priority 2009, dated 2015).

The target in one assay is TACE enzyme (Homo sapiens, UniProt P78536). The experiment in a line: Enzymatic test of TACE inhibition (fluorescent substrate). The format is biochemical.
In the next assay the target is MMP1 (Homo sapiens (Human), UniProt P03956). Nature of the assay: Selectivity test, MMP1. Type of assay: biochemical.
MMP1, sequence (P03956 100-469): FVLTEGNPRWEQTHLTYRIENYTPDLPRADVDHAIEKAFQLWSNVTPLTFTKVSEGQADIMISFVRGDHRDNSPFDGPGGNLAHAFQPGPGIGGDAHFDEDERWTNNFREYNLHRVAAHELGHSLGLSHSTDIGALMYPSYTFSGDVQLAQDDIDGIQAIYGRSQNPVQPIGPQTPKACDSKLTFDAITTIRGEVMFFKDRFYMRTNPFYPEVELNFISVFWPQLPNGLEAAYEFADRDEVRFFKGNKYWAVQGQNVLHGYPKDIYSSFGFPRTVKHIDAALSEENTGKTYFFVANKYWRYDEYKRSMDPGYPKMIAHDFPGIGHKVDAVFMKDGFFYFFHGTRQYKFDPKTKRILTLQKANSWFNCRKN
A further assay has as its target MMP3 (Homo sapiens (Human), UniProt P08254). Nature of the assay: Selectivity test, MMP3. Type of assay: biochemical.
The next assay concerns the target MMP9 (Homo sapiens (Human), UniProt P14780). Nature of the assay: Selectivity test, MMP9. Type of assay: biochemical.
A further assay has as its target ADAM10 (Homo sapiens (Human), UniProt O14672). Nature of the assay: Selectivity test, ADAM10. Type of assay: biochemical.
The target of a further assay is ADAM9 (Homo sapiens (Human), UniProt Q13443). Nature of the assay: biochemical.
ADAM9, sequence (Q13443 29-819): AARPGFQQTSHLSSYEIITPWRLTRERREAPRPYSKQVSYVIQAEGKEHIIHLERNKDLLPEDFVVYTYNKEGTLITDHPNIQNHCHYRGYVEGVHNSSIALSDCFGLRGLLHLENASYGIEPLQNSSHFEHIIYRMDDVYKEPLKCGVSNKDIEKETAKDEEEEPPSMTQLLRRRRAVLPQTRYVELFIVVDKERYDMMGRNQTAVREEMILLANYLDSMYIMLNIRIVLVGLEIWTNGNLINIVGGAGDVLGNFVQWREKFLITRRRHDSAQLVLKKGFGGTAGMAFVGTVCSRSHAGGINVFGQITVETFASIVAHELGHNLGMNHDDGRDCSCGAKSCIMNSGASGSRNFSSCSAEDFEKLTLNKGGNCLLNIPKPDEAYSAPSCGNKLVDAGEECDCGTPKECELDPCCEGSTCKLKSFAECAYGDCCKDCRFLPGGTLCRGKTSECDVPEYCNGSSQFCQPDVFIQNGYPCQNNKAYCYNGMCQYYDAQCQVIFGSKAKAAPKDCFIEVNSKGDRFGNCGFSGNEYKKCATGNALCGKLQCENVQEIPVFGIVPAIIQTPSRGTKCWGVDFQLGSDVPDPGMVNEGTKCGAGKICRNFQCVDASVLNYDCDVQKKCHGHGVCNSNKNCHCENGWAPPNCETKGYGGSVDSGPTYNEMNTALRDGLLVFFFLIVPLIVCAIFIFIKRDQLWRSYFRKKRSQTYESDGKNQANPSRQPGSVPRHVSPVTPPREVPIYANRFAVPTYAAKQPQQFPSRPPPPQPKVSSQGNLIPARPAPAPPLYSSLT
The mark [1] stands for this setting: enzymatic test, substrate 40 μM.

Molecules are shown by their SMILES. pIC50: −log10 of the molar value.

TACE enzyme, sequence (P78536 215-824 limits assumed): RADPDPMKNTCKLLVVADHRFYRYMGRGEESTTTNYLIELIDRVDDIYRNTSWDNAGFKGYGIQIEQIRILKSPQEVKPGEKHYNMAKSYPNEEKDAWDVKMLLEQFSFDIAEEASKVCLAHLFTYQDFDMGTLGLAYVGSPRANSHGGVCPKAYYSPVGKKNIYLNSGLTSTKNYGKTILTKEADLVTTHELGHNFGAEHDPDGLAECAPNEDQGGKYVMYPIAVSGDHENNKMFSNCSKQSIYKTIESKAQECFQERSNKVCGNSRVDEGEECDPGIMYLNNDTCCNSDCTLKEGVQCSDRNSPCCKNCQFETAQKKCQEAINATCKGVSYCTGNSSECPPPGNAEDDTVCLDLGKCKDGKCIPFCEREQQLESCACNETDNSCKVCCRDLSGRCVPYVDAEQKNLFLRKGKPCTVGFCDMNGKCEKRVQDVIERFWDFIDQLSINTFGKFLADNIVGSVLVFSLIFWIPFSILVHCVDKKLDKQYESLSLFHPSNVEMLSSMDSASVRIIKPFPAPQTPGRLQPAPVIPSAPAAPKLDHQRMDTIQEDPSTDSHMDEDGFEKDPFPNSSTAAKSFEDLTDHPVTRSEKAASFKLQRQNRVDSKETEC
MMP3, sequence (P08254 100-477): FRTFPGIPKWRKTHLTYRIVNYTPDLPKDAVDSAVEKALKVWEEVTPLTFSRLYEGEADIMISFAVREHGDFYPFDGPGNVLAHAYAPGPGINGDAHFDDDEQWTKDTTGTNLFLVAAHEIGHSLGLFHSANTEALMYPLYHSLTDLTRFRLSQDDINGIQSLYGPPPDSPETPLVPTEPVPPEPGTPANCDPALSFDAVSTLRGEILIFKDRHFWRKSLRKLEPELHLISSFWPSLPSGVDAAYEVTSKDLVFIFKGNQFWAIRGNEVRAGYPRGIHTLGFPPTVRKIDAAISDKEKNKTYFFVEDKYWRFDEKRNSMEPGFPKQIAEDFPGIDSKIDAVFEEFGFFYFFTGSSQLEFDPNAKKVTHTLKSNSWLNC
ADAM10, sequence (O14672 214-748): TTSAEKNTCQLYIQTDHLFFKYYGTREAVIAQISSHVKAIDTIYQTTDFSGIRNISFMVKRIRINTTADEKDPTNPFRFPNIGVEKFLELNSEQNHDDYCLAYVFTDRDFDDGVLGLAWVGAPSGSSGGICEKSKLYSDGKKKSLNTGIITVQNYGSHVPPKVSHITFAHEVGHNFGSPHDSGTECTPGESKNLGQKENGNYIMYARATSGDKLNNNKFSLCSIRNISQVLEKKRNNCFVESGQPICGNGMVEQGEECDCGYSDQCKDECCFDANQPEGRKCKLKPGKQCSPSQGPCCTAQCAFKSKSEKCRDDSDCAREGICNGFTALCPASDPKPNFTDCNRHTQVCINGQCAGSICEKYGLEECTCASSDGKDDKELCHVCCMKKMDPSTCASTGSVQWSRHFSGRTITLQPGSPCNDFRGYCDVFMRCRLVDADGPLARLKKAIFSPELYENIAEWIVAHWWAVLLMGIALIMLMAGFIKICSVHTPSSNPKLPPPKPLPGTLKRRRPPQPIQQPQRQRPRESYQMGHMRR
MMP9, sequence (P14780 94-707): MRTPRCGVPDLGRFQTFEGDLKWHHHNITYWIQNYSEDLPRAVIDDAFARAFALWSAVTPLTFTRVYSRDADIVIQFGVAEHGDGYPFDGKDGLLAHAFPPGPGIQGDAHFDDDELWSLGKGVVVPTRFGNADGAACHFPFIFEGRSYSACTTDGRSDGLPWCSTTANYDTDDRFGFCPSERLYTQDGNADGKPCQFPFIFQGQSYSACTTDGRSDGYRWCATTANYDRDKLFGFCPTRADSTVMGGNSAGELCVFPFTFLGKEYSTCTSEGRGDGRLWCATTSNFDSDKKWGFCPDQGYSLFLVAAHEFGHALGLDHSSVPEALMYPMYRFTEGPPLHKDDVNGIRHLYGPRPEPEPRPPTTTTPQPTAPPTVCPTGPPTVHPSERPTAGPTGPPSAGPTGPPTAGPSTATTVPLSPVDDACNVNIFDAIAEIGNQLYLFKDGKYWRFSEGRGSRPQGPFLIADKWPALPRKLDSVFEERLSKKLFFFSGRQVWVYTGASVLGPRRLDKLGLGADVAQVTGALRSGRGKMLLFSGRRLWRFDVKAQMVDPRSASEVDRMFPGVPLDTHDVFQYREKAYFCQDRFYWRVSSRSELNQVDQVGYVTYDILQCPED

In the case of `CC#CCOc1ccc(C(=O)NCC(C(=O)NO)N2CCN(S(C)(=O)=O)CC2)cc1` (stereo not drawn) [Example 1, 4-But-2-ynyloxy-N-[2-hydroxycarbamoyl-2-(4-methanesulphonylpiperazin-1-yl)ethyl]benzamide], the “% TACE inhibition at 10 μM” value at TACE enzyme is on record as 100%. Moreover, on TACE enzyme (setting [1]), the pIC50 (in general, the IC50 on a negative log10 scale, so that one unit is a factor of ten) is 7.49.
In the case of `CC#CCOc1ccc(C(=O)NC[C@@H](C(=O)NO)N2CCN(S(C)(=O)=O)CC2)cc1` [Example 2, 4-But-2-ynyloxy-N—[(S)-2-hydroxycarbamoyl-2-(4-methanesulphonylpiperazin-1-yl)ethyl]benzamide], the “% TACE inhibition at 10 μM” value on TACE enzyme is recorded as 100%. The pIC50 is 7.55 at TACE enzyme (setting [1]); 7.55 at TACE enzyme (selectivity table); < 5.00 against MMP1; 5.20 against MMP3; < 5.00 at MMP9.
Consider `COc1ccc(C(=O)NC[C@@H](C(=O)NO)N2CCN(S(C)(=O)=O)CC2)cc1` [Example 4, N—[(S)-2-hydroxycarbamoyl-2-(4-methane-sulphonylpiperazin-1-yl)ethyl]-4-methoxybenzamide], for which the “% TACE inhibition at 10 μM” value at TACE enzyme is recorded as 100%. The same compound gave a pIC50 at TACE enzyme (setting [1]) of 6.80.
As to `CS(=O)(=O)N1CCN([C@@H](CNC(=O)c2ccc(OCC3CC3)cc2)C(=O)NO)CC1` [Example 5, 4-cyclopropylmethoxy-N—[(S)-2-hydroxycarbamoyl-2-(4-methanesulphonylpiperazin-1-yl)ethyl]benzamide], at TACE enzyme, the “% TACE inhibition at 10 μM” value turned out to be 100%. At TACE enzyme (setting [1]), the pIC50 is 6.70.
Taken in the same sequence, the figures for `CS(=O)(=O)N1CCN([C@@H](CNC(=O)c2ccc(OCc3ccccc3)cc2)C(=O)NO)CC1` [Example 6, 4-benzyloxy-N—[(S)-2-hydroxycarbamoyl-2-(4-methanesulphonylpiperazin-1-yl)ethyl]benzamide] were 100% and 7.40.
For `CC#CCOc1ccc(C(=O)NC[C@@H](C(=O)NO)N2CCN(S(=O)(=O)c3ccc(C)cc3)CC2)cc1` [Example 8, 4-but-2-ynyloxy-N-{(S)-2-hydroxycarbamoyl-2-[4-(toluene-4-sulphonyl)piperazin-1-yl]ethyl}benzamide], on TACE enzyme, the “% TACE inhibition at 10 μM” value is on record as 100%. Moreover, on TACE enzyme (setting [1]), the pIC50 was 7.27.
For `CS(=O)(=O)N1CCN([C@@H](CNC(=O)c2ccc(OCc3ccc(F)cc3)cc2)C(=O)NO)CC1` [Example 9, 4-(4-fluorobenzyloxy)-N—[(S)-2-hydroxycarbamoyl-2-(4-methanesulphonylpiperazin-1-yl)ethyl]benzamide], on TACE enzyme, the “% TACE inhibition at 10 μM” value worked out at 98%. At TACE enzyme (setting [1]), this compound showed a negative logarithm of the IC50 (pIC50) of 7.68.
`CS(=O)(=O)N1CCN([C@@H](CNC(=O)c2ccc(OCc3ccc(C(F)(F)F)cc3)cc2)C(=O)NO)CC1` [Example 10, N—[(S)-2-hydroxycarbamoyl-2-(4-methane-sulphonylpiperazin-1-yl)ethyl]-4-(4-trifluoromethyl-benzyloxy)benzamide]: the “% TACE inhibition at 10 μM” value at TACE enzyme stood at 97%. The pIC50 at TACE enzyme (setting [1]) was 6.93.
Turning to `Cc1ccc(COc2ccc(C(=O)NC[C@@H](C(=O)NO)N3CCN(S(C)(=O)=O)CC3)cc2)cc1` [Example 11, N—[(S)-2-hydroxycarbamoyl-2-(4-methane-sulphonylpiperazin-1-yl)ethyl]-4-(4-methylbenzyloxy)-benzamide], the “% TACE inhibition at 10 μM” value at TACE enzyme turned out to be 96%. On TACE enzyme (setting [1]), this compound showed a pIC50 of 7.02.
In the same order, the values of `CC#CCOc1ccc(C(=O)N(C)C[C@@H](C(=O)NO)N2CCN(S(C)(=O)=O)CC2)cc1` [Example 13, 4-But-2-ynyloxy-N—[(S)-2-hydroxycarbamoyl-2-(4-methanesulphonylpiperazin-1-yl)ethyl]-N-methylbenzamide] are 98% and 7.66.
For `Cc1cc(COc2ccc(C(=O)NC[C@@H](C(=O)NO)N3CCN(S(C)(=O)=O)CC3)cc2)c2ccccc2n1` [Example 14, N—[(S)-2-Hydroxycarbamoyl-2-(4-methane-sulphonylpiperazin-1-yl)ethyl]-4-(2-methylquinolin-4-ylmethoxy)benzamide], the “% TACE inhibition at 10 μM” value at TACE enzyme is listed as 98%. Moreover, the values for the pIC50 at MMP1, against MMP3 and against ADAM10 were 5.58, 5.17 and 5.24, respectively.
Consider `CS(=O)(=O)N1CCN([C@@H](CNC(=O)c2ccc(OCC#CCO)cc2)C(=O)NO)CC1` [Example 16, 4-(4-Hydroxybut-2-ynyloxy)-N—[(S)-2-hydroxycarbamoyl-2-(4-methanesulphonylpiperazin-1-yl)-ethyl]benzamide], for which the “% TACE inhibition at 10 μM” value at TACE enzyme was 97%. The compound further gave a pIC50 at TACE enzyme (setting [1]) of 7.46.
In the same order, the values of `COc1ccc(COc2ccc(C(=O)NC[C@@H](C(=O)NO)N3CCN(S(C)(=O)=O)CC3)cc2)cc1` [Example 17, N—[(S)-2-Hydroxycarbamoyl-2-(4-methane-sulphonylpiperazin-1-yl)ethyl]-4-(4-methoxybenzyloxy)-benzamide] are 98% and 7.15.
Taken in the same sequence, the figures for `CS(=O)(=O)N1CCN([C@@H](CNC(=O)c2ccc(OCc3ccncc3)cc2)C(=O)NO)CC1` [Example 18, N—[(S)-2-Hydroxycarbamoyl-2-(4-methane-sulphonylpiperazin-1-yl)ethyl]-4-(pyridin-4-ylmethoxy)-benzamide] were 98% and 7.00.
For the compound `Cc1ccc2ccccc2c1COc1ccc(C(=O)NC[C@@H](C(=O)NO)N2CCN(S(C)(=O)=O)CC2)cc1` [Example 19, N—[(S)-2-Hydroxycarbamoyl-2-(4-methane-sulphonylpiperazin-1-yl)ethyl]-4-(2-methylnaphthalen-1-ylmethoxy)benzamide], the “% TACE inhibition at 10 μM” value at TACE enzyme came out at 90%. At TACE enzyme (setting [1]), the pIC50 was 6.86.
In the same order, the values of `CS(=O)(=O)N1CCN([C@@H](CNC(=O)c2ccc(OCc3ccnc4ccccc34)cc2)C(=O)NO)CC1` [Example 21, N—[(S)-2-hydroxycarbamoyl-2-(4-methane-sulphonylpiperazin-1-yl)ethyl]-4-(quinolin-4-ylmethoxy)benzamide] are 96% and 6.93.
Consider `Cc1cc(COc2ccc(C(=O)NC[C@@H](C(=O)NO)N3CCN(Cc4ccccc4)CC3)cc2)c2ccccc2n1` [Example 22, N—[(S)-2-(4-Benzylpiperazin-1-yl)-2-hydroxycarbamoylethyl]-4-(2-methylquinolin-4-yl-methoxy)benzamide], for which the “% TACE inhibition at 10 μM” value on TACE enzyme is 97%. Also, the pIC50 on TACE enzyme (setting [1]) was 7.10.
As for `Cc1cc(COc2ccc(C(=O)NC[C@@H](C(=O)NO)N3CCN(S(=O)(=O)C(C)C)CC3)cc2)c2ccccc2n1` [Example 23, N-{(S)-2-Hydroxycarbamoyl-2-[4-(propane-2-sulphonyl)piperazin-1-yl]ethyl}-4-(2-methylquinolin-4-ylmethoxy)benzamide], at TACE enzyme, the “% TACE inhibition at 10 μM” value is on record as 97%. Besides, on TACE enzyme (setting [1]), the pIC50 is 6.99.
For the compound `Cc1cc(COc2ccc(C(=O)NC[C@@H](C(=O)NO)N3CCN(S(C)(=O)=O)CC3)cc2)c2ccccc2n1.Cl.Cl` [Example 24, N—[(S)-2-Hydroxycarbamoyl-2-(4-methane-sulphonylpiperazin-1-yl)ethyl]-4-(2-methylquinolin-4-ylmethoxy)benzamide dihydrochloride], on TACE enzyme, the “% TACE inhibition at 10 μM” value is listed as 98%.
Consider `CCN1CCN([C@@H](CNC(=O)c2ccc(OCc3cc(C)nc4ccccc34)cc2)C(=O)NO)CC1` [Example 25, N—[(S)-2-(4-Ethylpiperazin-1-yl)-2-hydroxycarbamoylethyl]-4-(2-methylquinolin-4-ylmethoxy)-benzamide], for which the “% TACE inhibition at 10 μM” value on TACE enzyme was found to be 90%. In addition, the pIC50 against TACE enzyme (setting [1]) is 7.35.
As to `O=C(NCC(C(=O)NO)N1CCN(Cc2ccccc2)CC1)c1ccc(OCc2c(C(F)(F)F)nn3ccccc23)cc1` (stereo not drawn) [Example 27, N-[2-(4-Benzylpiperazin-1-yl)-2-hydroxycarbamoylethyl]-4-(2-trifluoromethylpyrazolo[1,5-a]pyridin-3-ylmethoxy)benzamide], the “% TACE inhibition at 10 μM” value at TACE enzyme is recorded as 95%. For the same compound, the pIC50 at MMP1, against MMP3, at MMP9, against ADAM10 and on ADAM9 was < 5.00 in each case.
